According to publication PMC13576449, “Small-Molecule Activators of PRMT1: Discovery, SAR Analyses, and Proapoptotic Effects in Pancreatic Cancer Cells” (Journal of Medicinal Chemistry, 2026):

Target: T1, FLAG-tagged PRMT4 (Mus musculus, UniProt Q9WVG6)
T1 construct: Full-length FLAG-tagged PRMT protein; made in house; host or cells: Sf9 insect cells (baculovirus)
T1 sequence (Q9WVG6 1-608): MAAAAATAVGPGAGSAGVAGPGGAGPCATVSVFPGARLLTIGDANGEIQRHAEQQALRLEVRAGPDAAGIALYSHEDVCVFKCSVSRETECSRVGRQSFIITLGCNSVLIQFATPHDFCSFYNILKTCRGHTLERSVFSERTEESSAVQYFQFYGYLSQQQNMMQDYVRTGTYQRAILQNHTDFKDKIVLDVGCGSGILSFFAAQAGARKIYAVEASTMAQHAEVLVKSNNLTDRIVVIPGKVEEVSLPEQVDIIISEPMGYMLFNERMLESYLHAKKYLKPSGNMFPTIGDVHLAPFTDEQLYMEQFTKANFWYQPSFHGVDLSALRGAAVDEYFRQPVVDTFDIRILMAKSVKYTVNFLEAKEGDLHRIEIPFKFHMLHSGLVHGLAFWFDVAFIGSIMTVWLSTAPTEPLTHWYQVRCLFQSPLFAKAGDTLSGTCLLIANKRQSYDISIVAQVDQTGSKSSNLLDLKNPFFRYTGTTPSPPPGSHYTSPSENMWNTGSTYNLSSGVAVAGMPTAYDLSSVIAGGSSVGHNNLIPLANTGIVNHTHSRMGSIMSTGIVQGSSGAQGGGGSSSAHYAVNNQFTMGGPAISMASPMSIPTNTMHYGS
Assay: Fluorescence-based in vitro PRMT assay (F-PRMT assay), PRMT4
Format: biochemical
Conditions: for Experimental result (PRMT4): vs solvent control = 100%
How it was run: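 Baculovirus/Sf9-expressed FLAG-PRMTs (human PRMT3, PRMT6; mouse PRMT4), anti-FLAG purified and used bead-bound, methylated Bz-Arg-AMC with SAM for 2 h at 37 °C, 1,000 rpm. Technical triplicates; no-SAM negative controls.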

SMILES: CN(C)Cc1cccc(CN/C=C2\C(=O)NC(=O)c3ccccc32)c1.Cl [TR-07, (Z)-1-[3-({[(1,3-Dioxo-2,3-dihydroisoquinolin-4(1H)-lidene)methyl]amino}methyl)phenyl]-N,N-dimethylmethanaminium chloride]
- effect on PRMT4 activity (in words) (100 μM compound): neither positively nor negatively influencing
- Experimental result (PRMT4) (Table 1, 100 μM compound, 2 μM PRMT, n = 3, racemates used): PRMT4 n.e. (Compounds, which did not significantly affect the catalytic activity (less than ±6% change or not significant p-value), are marked with [drawing 8] (no effect))
- Experimental result (PRMT4) (Table S3, 100 µM compound, n≥3): n.e. (did not significantly affect the catalytic activity (less than ±6% change or not significant p-value), are marked with n.e. (no effect))
